Measurements published in patent US20230338310A1, “ANTI-VIRAL THERAPY” (priority 2020, published 2023).
In brackets after ≈: the same amount, converted by molar mass. Entries after “also recorded” stand apart in the source; their conditions may differ.

Tests used:
hCoV 229E [1] = assay: Immunoperoxidase assay (TCID50/pfu) and microscopic examination of hCoV 229E-infected A549 lung epithelial cells; type: cell-based, human coronavirus 229E (ATCC VR/740) in human A549 cells
hCoV 229E [2] = assay: Immunoperoxidase assay (TCID50/pfu) and microscopic examination of hCoV 229E-infected MRC-5 lung fibroblast cells; type: cell-based, human coronavirus 229E (ATCC VR/740) in human MRC-5 cells; settings: MRC-5 cells
IL-6 = IL-6 response of A549 airway epithelial cells infected with human coronavirus 229E (IL-6 Duoset immunoassay); type: cell-based; settings: 10^3 dilution of stock HCoV 229E, single doses of 2 or 10 mg/L, 20 h at 37° C., one-way ANOVA and Tukey
IFNβ = IFNβ response of A549 airway epithelial cells infected with human coronavirus 229E (IFN Beta Quantikine kit); type: cell-based; settings: 10^3 dilution of stock HCoV 229E, single dose of 10 mg/L, 20 h at 37° C., none detected with virus alone
glycine decarboxylase = molecular target: T1, glycine decarboxylase (Homo sapiens, UniProt P23378); assay: Glycine utilisation by MRC-5 fibroblasts (fluorometric glycine assay of supernatants); type: cell-based; settings: 10 mg/L cysteamine, 4 h, glycine 300 μM, insulin 10 mg/L
T1 construct: endogenous in cells; host or cells: MRC-5 airway fibroblast cells
T1 sequence (P23378 36-1020): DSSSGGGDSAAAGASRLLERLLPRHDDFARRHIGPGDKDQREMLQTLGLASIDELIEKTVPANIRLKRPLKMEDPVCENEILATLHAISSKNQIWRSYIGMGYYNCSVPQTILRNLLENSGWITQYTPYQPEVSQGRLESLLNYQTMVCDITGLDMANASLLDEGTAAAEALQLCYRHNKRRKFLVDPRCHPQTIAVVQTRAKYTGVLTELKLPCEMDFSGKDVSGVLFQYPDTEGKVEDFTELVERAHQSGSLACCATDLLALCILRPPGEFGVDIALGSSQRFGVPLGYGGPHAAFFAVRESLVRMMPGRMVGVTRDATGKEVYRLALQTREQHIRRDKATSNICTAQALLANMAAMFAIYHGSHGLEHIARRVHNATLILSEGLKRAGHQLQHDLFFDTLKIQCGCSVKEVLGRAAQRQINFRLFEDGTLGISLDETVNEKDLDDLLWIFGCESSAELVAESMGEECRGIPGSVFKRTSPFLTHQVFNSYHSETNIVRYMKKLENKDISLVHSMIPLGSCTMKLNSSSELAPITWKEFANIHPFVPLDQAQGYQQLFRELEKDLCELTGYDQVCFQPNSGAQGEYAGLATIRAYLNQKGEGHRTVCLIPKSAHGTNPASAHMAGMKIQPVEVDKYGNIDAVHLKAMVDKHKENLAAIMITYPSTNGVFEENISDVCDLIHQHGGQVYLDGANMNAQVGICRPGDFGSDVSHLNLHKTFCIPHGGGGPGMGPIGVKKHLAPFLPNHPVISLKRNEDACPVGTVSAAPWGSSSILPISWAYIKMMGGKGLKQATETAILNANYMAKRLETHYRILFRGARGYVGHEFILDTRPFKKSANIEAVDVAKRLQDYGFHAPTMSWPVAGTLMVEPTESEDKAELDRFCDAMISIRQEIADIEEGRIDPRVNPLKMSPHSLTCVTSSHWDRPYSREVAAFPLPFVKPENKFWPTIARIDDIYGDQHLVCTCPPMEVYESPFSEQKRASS
Method: MRC-5 airway fibroblast cells were grown to 90% confluence in 2×12-well plates in EMEM+10% FBS. Cell culture media was replaced with:
Plate 1 • 1. 3×1 ml media alone (EMEM+10% FBS) • 2. 3×1 ml media+insulin (10 mg/L) • 3. 3×1 ml media+added glycine (300 μM) • 4. 3×1 ml media+glycine+insulin
As above, but with the addition of cysteamine to a final concentration of 10 mg/L Cells were then incubated at 37° C. and 5% C02 for 4 h. After incubation cell supernatants were harvested and transferred to labelled cryotubes and stored at −80° C. prior to assessment of glycine content. Insulin strongly stimulates glycine utilisation via glycine decarboxylase.
The supernatants were thawed prior to determining the glycine concentration using the fluorometric glycine assay kit from Abcam (Ab211100).
Manufacturer's instructions were followed and fluorometric assessment of glycine concentration in supernatants and standards was performed on the Biotek Synergy plate reader using 96-well black-walled plates at 535/587 nm (ex/em).

hCoV 229E [3] = assay: qPCR of hCoV 229E M protein gene copies in supernatant of infected A549 lung epithelial cells; type: cell-based, human coronavirus 229E in human A549 cells; settings: 1 or 2 mg/L daily until 5th day, virus dilutions 10^-3 to 10^-5
Method: The effect of treatment of coronavirus-infected pulmonary cells with cysteamine was studied using A549 (sample obtained from deposit, deposited under ATCC CCL-185) being a human lung epithelial cell line. Prior to viral challenge A549 cells were grown at 37° C. in 5% CO2 atmosphere in growth media F-12 with Kaighn's modification+10% FBS +pen-strep [F-12K]) to 70-80% confluency in F12-K in tissue-culture-treated 96-well plates. Immediately prior to viral challenge, cells were washed in Hanks balanced salt solution and media was replaced with 100 μl challenge medium per well (F-12K) which contained 1% serum. […] Quantitative (real-time) polymerase chain reaction (qPCR) was carried out using PrecisionPLUS qPCR Master Mix (PrimerDesign) and forward and reverse oligonucleotides (229E Sense & 229E Antisense) specific to the hCoV 229E M protein gene. Amplification was carried out using a MiniOpticon Real-Time PCR system (Bio-Rad) and data was analysed using Opticon Monitor software (Bio-Rad). Analysed samples had been exposed to 10^−3 (1.12×10^12 pfu/ml), 10^−4 (1.12×10^11 pfu/ml) and 10^−5 (1.12×10^10 pfu/ml) of hCoV 229E and conducted from quadruplicate technical replicates. The number of copies of the 229E M protein gene were determined from a standard curve containing known number of copies of the 229E M protein gene.

[4] = test system: SARS-CoV-2 (SARS-CoV-2-CVR-Gla-1); assay: SARS-CoV-2 cytopathology (CPE) assay in Vero E6 MESO cells; type: cell-based
[5] = 14 days of cysteamine therapy adjunct to standard of care therapy; cited from earlier work
[6] = 2 mg/L daily for 5 days, all virus concentrations of the study

NCCS [cysteamine, 2-Aminoethanethiol]
pfu/ml in wells infected with hCoV 229E (hCoV 229E [1]; 1 mg/L cysteamine once a day for 5 days (untreated control 2.21 × 10^14/ml)): 3.94 × 10^15/ml pfu/ml | viral load (pfu/ml) relative to control without cysteamine (hCoV 229E [1]; 2 mg/L): can reduce viral load | pfu/ml in wells infected with hCoV 229E (hCoV 229E [1]; 2 mg/L cysteamine once a day for 5 days (untreated control 2.21 × 10^14/ml)): 7 × 10^9/ml pfu/ml | protection against infection with hCoV 229E (hCoV 229E [1]; [6]): confer protection against infection | viral load (pfu/ml) relative to control without cysteamine (hCoV 229E [2]; 2 mg/L): can reduce viral load | protection against infection with hCoV 229E (hCoV 229E [2]; [6]): confer protection against infection | cell monolayer integrity by microscopic examination (hCoV 229E [2]; day 4, 2 mg/L cysteamine, untreated cells destroyed at 10^-4 to 10^-7 viral dilution): not seen at all in any of the cysteamine treated cells; also recorded: visible intact monolayer | IL-6 secretion compared with viral infection alone (IL-6): significantly reduced IL-6 secretion | IFNβ response (IFNβ): IFNβ is detected | insulin-driven utilisation of exogenous glycine (glycine decarboxylase): blocked | viral load as number of copies of the 229E M protein gene (hCoV 229E [3]): reduces viral load | IC50 ([4]; Severe acute respiratory syndrome coronavirus 2, Vero C1008, 72 h, read-out: IC50 (CPE induced by SARS-CoV-2)): 21.4 µg/mL (≈ 277 µM) | CPE (Cytopathology) induced by SARS-CoV-2 ([4]; Vero E6 MESO cells): reduced the CPE | protection of the cell monolayer from SARS-CoV-2 CPE ([4]; Vero E6 MESO cells, 128 mg/L, 72 hours post-infection and later): almost complete protection | protection of the cell monolayer from SARS-CoV-2 CPE ([4]; Vero E6 MESO cells, therapeutically-achievable doses, 72 hours post-infection): modest | CRP levels versus SOCT alone [5]: significantly reduced | WBC levels versus SOCT alone [5]: significantly reduced
